Test results from patent US12404242B2, “Compositions and methods for making and using small molecules in the treatment of cancer” (Reglagene, Inc., priority 2021, dated 2025).
pEC50: −log10 of the molar value. Values after ≈ are worked out from the molar mass of the structure shown. Like-named read-outs stand apart in the source and are kept apart here. Values belong to the compound of their own block, whether it stands above or below them.

Experiments:
[1] = test system: LNCaP cells; test: Cell viability (AlamarBlue), LNCaP prostate cancer cells; format: cell-based, human; design: key to EC50 (μM) in LNCaP cells: Inactive: less than 50% inhibition at the highest concentration tested at 50 μM; conditions: 72 hours of treatment
Method: (§1) In another exemplary method, half maximal effective concentration (EC50) was determined for some compounds and their isomers as disclosed herein in a variety of human cancer cell lines. In brief, cells from two prostate cancer cell lines (LNCaP, 22RV1), one glioblastoma cell line (U87), one breast cancer cell line (MCF7), a glioma cell line (LN18), a normal prostate cell line (RWPE1), and a glioblastoma cell line (T98G) were plated in a multi-well plate. After 24 hours, one of the compounds herein was added to the well at increasing concentrations. After 72 hours of treatment, cell viability was assessed using AlamrBlue® (Invitrogen) and fluorescence was read using the CLARIOstar Plus Multilabel Plate Reader (BMG Labtech). Samples were normalized to no treatment controls. EC50 values were determined using GraphPad Prism.

[2] = test system: 22RV1 cells; test: Cell viability (AlamarBlue), 22RV1 prostate cancer cells; format: cell-based, human; design: key to EC50 (μM) in 22RV1 cells: Inactive: less than 50% inhibition at the highest concentration tested at 50 μM; conditions: 72 hours of treatment
Method: as §1

[3] = test system: U87 cells; test: Cell viability (AlamarBlue), U87 glioblastoma cells; format: cell-based, human; design: key to EC50 (μM) in U87 cells: Inactive: less than 50% inhibition at the highest concentration tested at 50 μM; conditions: 72 hours of treatment
Method: as §1

[4] = test system: RWPE1 cells; test: Cell viability (AlamarBlue), RWPE1 normal prostate cells; format: cell-based, human; design: key to EC50 (μM) in RWPE1 cells: Inactive: less than 50% inhibition at the highest concentration tested at 50 μM; conditions: normal prostate cell line; for EC50: Homo sapiens, RWPE-1, 72 hours of treatment; for EC50 (μM) in RWPE1 cells: 72 hours of treatment
Method: as §1

[5] = Kinetic solubility in aqueous PBS buffer (HPLC-MS); format: physicochemical; conditions: kinetic from dmso stock
Method: In another exemplary method, central nervous system multiparameter optimization (CNS MPO) score and kinetic solubility of selected compounds was determined. CNS MPO score for compounds and their isomers disclosed herein were calculated using an algorithm that uses a weighted scoring function assessing 6 key physicochemical properties (clogP, clogD, MW, TPSA, HBD, and pKa) for blood-brain-barrier (BBB penetration). CNS MPO score ranged from 0 and 6.0 with scores≥4.0 used as a cut-off to select compounds that can have a high probability of accumulating in the CNS. Kinetic solubility of a compound is the maximum solubility of the fastest precipitating species of the compound. Kinetic solubility was determined by preparing a concentrated stock solution for compounds and their isomers disclosed herein in an organic solvent (DMSO), after which the solution was mixed with an aqueous PBS buffer and then filtered. Filtrate was tested to quantify the kinetic solubilty using HPLC-MS calibration curve. The CNS MPO Score and kinetic solubility of the compounds tested are provided in Table 7 where “ND” means not determined.

[6] = test system: cancer cell; test: Cancer cell viability, cell line not stated (per-compound ranges in description); format: cell-based; conditions: 'In some embodiments', values worded 'about', read-out: EC50 in cancer cell viability (range stated in description)
Method: as §1

[7] = 'In some embodiments', values worded 'about', read-out: kinetic solubility (range stated in description)

EC50 ([1]; Homo sapiens, LNCaP, 72 h): 1.8 µM | EC50 ([2]; Homo sapiens, 22Rv1, 72 h): 1.1 µM | EC50 ([3]; Homo sapiens, U-87 MG, 72 h): 1.3 µM
Compound: COC1CCC(C(=O)NC(=O)Nc2ccc(Oc3ncc(Cl)cn3)c(F)c2)CC1 (single isomer, unassigned) [Compound 14A, N-((4-((5-chloropyrimidin-2-yl)oxy)-3-fluorophenyl)carbamoyl)-4-methoxycyclohexane-1-carboxamide]
EC50 [4]: 1.3 µM

EC50 (μM) in 22RV1 cells [2]: Inactive | EC50 (μM) in U87 cells [3]: Inactive
Compound: COC1CCC(C(=O)NC(=O)Nc2ccc(Oc3ncc(Cl)cn3)c(F)c2)CC1 (single isomer, unassigned) [Compound 14B, N-((4-((5-chloropyrimidin-2-yl)oxy)-3-fluorophenyl)carbamoyl)-4-methoxycyclohexane-1-carboxamide]
EC50 (μM) in RWPE1 cells [4]: Inactive

EC50 [1]: 3.9 µM | EC50 [2]: 17.3 µM | EC50 [3]: 22 µM
Compound: COC1CC(C(=O)NC(=O)Nc2ccc(Oc3ccc(F)cn3)c(C)c2)C1 (single isomer, unassigned) [Compound 15B, N-((4-((5-fluoropyridin-2-yl)oxy)-3-methylphenyl)carbamoyl)-3-methoxycyclobutanecarboxamide]
EC50 (μM) in RWPE1 cells [4]: Inactive

EC50 [1]: 5 µM | EC50 [2]: 21.2 µM | EC50 [3]: 24 µM
Compound: COC1CC(C(=O)NC(=O)Nc2ccc(Oc3ccc(C#N)cn3)c(C)c2)C1 (single isomer, unassigned) [Compound 16B, N-((4-((5-cyanopyridin-2-yl)oxy)-3-methylphenyl)carbamoyl)-3-methoxycyclobutane-1-carboxamide]
EC50 (μM) in RWPE1 cells [4]: Inactive

EC50 [1]: 1.3 µM | EC50 [2]: 4.2 µM | EC50 [3]: 13.7 µM
Compound: COC1CC(C(=O)NC(=O)Nc2ccc(Oc3ccc(Cl)cn3)c(C)c2)C1 (single isomer, unassigned) [Compound 19B, 1-{4-[(5-chloropyridin-2-yl)oxy]-3-methylphenyl}-3-(3-methoxycyclobutanecarbonyl) urea]
EC50 (μM) in RWPE1 cells [4]: Inactive

EC50 [1]: 5 µM | EC50 [2]: 15.3 µM | EC50 [3]: 31.2 µM
Compound: COC1CC(C(=O)NC(=O)Nc2ccc(Oc3ncc(Cl)cn3)c(C)c2)C1 (single isomer, unassigned) [Compound 20B, N-((4-((5-chloropyrimidin-2-yl)oxy)-3-methylphenyl)carbamoyl)-3-methoxycyclobutane-1-carboxamide]
EC50 (μM) in RWPE1 cells [4]: Inactive

EC50 [1]: 0.9 µM | EC50 [2]: 2.8 µM | EC50 [3]: 3.7 µM
Compound: COC1CC(C(=O)NC(=O)Nc2ccc(Oc3nccs3)c(C)c2)C1 (single isomer, unassigned) [Compound 45A, 3-methoxy-N-((3-methyl-4-(thiazol-2-yloxy)phenyl)carbamoyl)cyclobutane-1-carboxamide]
EC50 (μM) in RWPE1 cells [4]: Inactive

EC50 [1]: 4 µM | EC50 [2]: 14.2 µM | EC50 [3]: 12.2 µM
Compound: COC1CC(C(=O)NC(=O)Nc2ccc(Oc3nccs3)c(C)c2)C1 (single isomer, unassigned) [Compound 45B, 3-methoxy-N-((3-methyl-4-(thiazol-2-yloxy)phenyl)carbamoyl)cyclobutane-1-carboxamide]
EC50 (μM) in RWPE1 cells [4]: Inactive

EC50 ([1]; Homo sapiens, LNCaP, 72 h): 19.7 µM | EC50 ([2]; Homo sapiens, 22Rv1, 72 h): 24 µM | EC50 ([3]; Homo sapiens, U-87 MG, 72 h): 20.8 µM
Compound: COC1CCC(C(=O)NC(=O)Nc2ccc(Oc3ncco3)c(C)c2)CC1 (stereo not drawn) [Compound 21, 1-(4-methoxycyclohexanecarbonyl)-3-[3-methyl-4-(1,3-oxazol-2-yloxy)phenyl]urea]
EC50 [4]: 33 µM

EC50 (μM) in LNCaP cells [1]: Inactive | EC50 (μM) in 22RV1 cells [2]: Inactive | EC50 (μM) in U87 cells [3]: Inactive
Compound: COC1CCC(C(=O)NC(=O)Nc2ccc(Oc3cccnn3)c(C)c2)CC1 (stereo not drawn) [Compound 22, 1-(4-methoxycyclohexanecarbonyl)-3-[3-methyl-4-(pyridazin-3-yloxy)phenyl]urea]
EC50 (μM) in RWPE1 cells [4]: Inactive

EC50 (μM) in LNCaP cells [1]: Inactive | EC50 ([2]; Homo sapiens, 22Rv1, 72 h): 30.6 µM | EC50 (μM) in U87 cells [3]: Inactive
Compound: COC1CCC(C(=O)NC(=O)Nc2ccc(Oc3ncc(Cl)cn3)cc2F)CC1 (stereo not drawn) [Compound 23, 3-{4-[(5-chloropyrimidin-2-yl)oxy]-2-fluorophenyl}-1-(4-methoxycyclohexanecarbonyl)urea]
EC50 (μM) in RWPE1 cells [4]: Inactive

EC50 (μM) in LNCaP cells [1]: Inactive | EC50 (μM) in 22RV1 cells [2]: Inactive | EC50 (μM) in U87 cells [3]: Inactive
Compound: COC1CCC(C(=O)NC(=O)Nc2ccc(Oc3ccc(Cl)cn3)cc2F)CC1 (stereo not drawn) [Compound 24, 3-{4-[(5-chloropyridin-2-yl)oxy]-2-fluorophenyl}-1-(4-methoxycyclohexanecarbonyl)urea]
EC50 [4]: 31 µM

EC50 ([1]; Homo sapiens, LNCaP, 72 h): 0.15 µM | EC50 ([2]; Homo sapiens, 22Rv1, 72 h): 0.35 µM | EC50 ([3]; Homo sapiens, U-87 MG, 72 h): 0.89 µM | solubility kinetic ([5]; DMSO stock mixed with aqueous PBS buffer, filtered, read-out: Kinetic Solubility): 1 µM (≈ 0.411 µg/mL)
Compound: COC1CC(C(=O)NC(=O)Nc2ccc(Oc3nc4ccccc4s3)c(C)c2)C1 (stereo not drawn) [Compound 56, N-((4-(benzo[d]thiazol-2-yloxy)-3-methylphenyl)carbamoyl)-3-methoxycyclobutane-1-carboxamide]
EC50 [4]: 22.4 µM

EC50 (μM) in LNCaP cells [1]: Inactive | EC50 (μM) in 22RV1 cells [2]: Inactive | EC50 (μM) in U87 cells [3]: Inactive
Compound: O=C(NC(=O)C1CCCCC1)Nc1ccc(Oc2ncc(Cl)cn2)c(F)c1 [Compound 70, N-((4-((5-chloropyrimidin-2-yl)oxy)-3-fluorophenyl)carbamoyl)cyclohexanecarboxamide]
EC50 (μM) in RWPE1 cells [4]: Inactive

solubility kinetic [5, 7]: 1.5 to 3.5 µM (≈ 0.56 to 1.31 µg/mL) | pEC50 [6]: 7.10 to 7.40
Compound: COC12CC(C(=O)NC(=O)Nc3ccc(Oc4nccs4)c(C)c3)(C1)C2 [drawing 270, 3-methoxy-N-((3-methyl-4-(thiazol-2-yloxy)phenyl)carbamoyl)bicyclo[1.1.1]pentane-1-carboxamide]

pEC50 [6]: 6.80 to 8.00
Compound: COC12CC(C(=O)NC(=O)Nc3ccc(Oc4ccc(Cl)cn4)c(C)c3)(C1)C2 [drawing 271, N-((4-((5-chloropyridin-2-yl)oxy)-3-methylphenyl)carbamoyl)-3-methoxybicyclo[1.1.1]pentane-1-carboxamide]

solubility kinetic [5, 7]: 1.5 to 3.5 µM (≈ 0.604 to 1.41 µg/mL) | pEC50 [6]: 7.10 to 7.40
Compound: COC12CC(C(=O)NC(=O)Nc3ccc(Oc4ncc(Cl)cn4)c(C)c3)(C1)C2 [drawing 272, N-((4-((5-chloropyrimidin-2-yl)oxy)-3-methylphenyl)carbamoyl)-3-methoxybicyclo[1.1.1]pentane-1-carboxamide]

pEC50 [6]: 6.40 to 7.00
Compound: COC12CC(C(=O)NC(=O)Nc3ccc(Oc4ccccn4)c(C)c3)(C1)C2 [drawing 273, 3-methoxy-N-((3-methyl-4-(pyridin-2-yloxy)phenyl)carbamoyl)bicyclo[1.1.1]pentane-1-carboxamide]

solubility kinetic [5, 7]: 25 to 30 µM (≈ 9.21 to 11.1 µg/mL) | pEC50 [6]: 5.40 to 6.30
Compound: COC12CC(C(=O)NC(=O)Nc3ccc(Oc4ncccn4)c(C)c3)(C1)C2 [drawing 274, 3-methoxy-N-((3-methyl-4-(pyrimidin-2-yloxy)phenyl)carbamoyl)bicyclo[1.1.1]pentane-1-carboxamide]

solubility kinetic [5, 7]: 85 to 91 µM (≈ 32.8 to 35.2 µg/mL) | pEC50 [6]: 5.40 to 6.30
Compound: COC12CC(C(=O)NC(=O)Nc3ccc(Oc4ncc(F)cn4)c(C)c3)(C1)C2 [drawing 275, N-((4-((5-fluoropyrimidin-2-yl)oxy)-3-methylphenyl)carbamoyl)-3-methoxybicyclo[1.1.1]pentane-1-carboxamide]

pEC50 [6]: 6.46 to 7.30
Compound: COC12CC(C(=O)NC(=O)Nc3ccc(Oc4ccc(F)cn4)c(C)c3)(C1)C2 [drawing 276, N-((4-((5-fluoropyridin-2-yl)oxy)-3-methylphenyl)carbamoyl)-3-methoxybicyclo[1.1.1]pentane-1-carboxamide]

pEC50 [6]: 6.20 to 7.06
Compound: COC12CC(C(=O)NC(=O)Nc3cc(C)c(Oc4ccc(F)cn4)c(F)c3)(C1)C2 [drawing 278, N-((3-fluoro-4-((5-fluoropyridin-2-yl)oxy)-5-methylphenyl)carbamoyl)-3-methoxybicyclo[1.1.1]pentane-1-carboxamide]

pEC50 [6]: 7.15 to 7.70
Compound: COC12CC(C(=O)NC(=O)Nc3ccc(C)c(Oc4ccccn4)c3)(C1)C2 [drawing 284, 3-methoxy-N-((4-methyl-3-(pyridin-2-yloxy)phenyl)carbamoyl)bicyclo[1.1.1]pentane-1-carboxamide]
